From the supplement of paper PMC11061612

Tests used:
[1] = tested on: NCI-H2405 (Lung Adenocarcinoma); assay: combination Emax (second highest fraction inhibited in the dose matrix, 72 h); higher = more inhibition; extreme values may be limits of the assay
How it was run: (§1)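 Cell lines in DMEM/F12 or RPMI with 10% FBS were plated in 1536-well plates, held 24 hours at 37°C, 5% CO2, then given two-drug dose matrices for 72 hours (DMSO typically 0.2%). Viability was read by CellTiter-Glo 2.0 luminescence and scaled as inhibition from 0 (vehicle wells) to 1 (blank wells). Combination Emax is the second-highest inhibition in the matrix; Bliss excess is observed combination effect minus expected EA + EB − EA·EB, EA and EB being single-agent effects.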

[2] = tested on: SCC-9 (Oral Cavity Carcinoma); assay: as above
How it was run: as §1

[3] = tested on: JHH-7 (Hepatocellular Carcinoma); assay: as above
How it was run: as §1

[4] = tested on: OCUB-M (Breast Carcinoma); assay: as above
How it was run: as §1

[5] = tested on: SCC-3 (B-Cell Non-Hodgkin's Lymphoma); assay: as above
How it was run: as §1

[6] = tested on: KU-19-19 (Bladder Carcinoma); assay: as above
How it was run: as §1

[7] = tested on: NCI-H322M (Lung Adenocarcinoma); assay: as above
How it was run: as §1

[8] = tested on: DG-75 (Burkitt's Lymphoma); assay: Bliss excess, mean over the matrix (fraction); higher = more synergy
How it was run: as §1

[9] = tested on: VMRC-LCD (Lung Adenocarcinoma); assay: as above
How it was run: as §1

[10] = tested on: OCUM-1 (Gastric Carcinoma); assay: as above
How it was run: as §1

[11] = tested on: HuP-T3 (Pancreatic Carcinoma); assay: as above
How it was run: as §1

[12] = tested on: EMC-BAC-2 (Non-Small Cell Lung Carcinoma); assay: as above
How it was run: as §1

GI-1 (Glioblastoma) = assay: as above
How it was run: as §1

[13] = tested on: TGBC11TKB (Gastric Carcinoma); assay: as above
How it was run: as §1

GOTO (Neuroblastoma) = assay: as above
How it was run: as §1

BT-20 (Breast Carcinoma) = assay: as above
How it was run: as §1

[14] = tested on: EBC-1 (Squamous Cell Lung Carcinoma); assay: as above
How it was run: as §1

[15] = tested on: KU-19-19 (Bladder Carcinoma); assay: as above
How it was run: as §1

NH-12 (Neuroblastoma) = assay: as above
How it was run: as §1

[16] = tested on: KP-2 (Pancreatic Carcinoma); assay: as above
How it was run: as §1
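For Bliss excess, mean over the matrix in this document: after 72 h of two-drug dosing.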

Row | SMILES | combination Emax [1] | combination Emax [2] | combination Emax [3] | combination Emax [4] | combination Emax [5] | combination Emax [6] | combination Emax [7] | Bliss excess [8] | Bliss excess [9] | Bliss excess [10] | Bliss excess [11] | Bliss excess [12] | Bliss excess (GI-1 (Glioblastoma)) | Bliss excess [13] | Bliss excess (GOTO (Neuroblastoma)) | Bliss excess (BT-20 (Breast Carcinoma)) | Bliss excess [14] | Bliss excess [15] | Bliss excess (NH-12 (Neuroblastoma)) | Bliss excess [16]
1 | COc1cccc(OCCCN)c1-c1cc(Nc2cnc(C#N)cn2)n[nH]1 [Prexasertib] + Cc1cc2ncnn2cc1Nc1ncc2c(n1)n(C1CCOCC1)c(=O)n2C [AZD7648] (first compound max 1 µM, 7x7, partner max 10 µM) | 0.412 | 0.49 | 0.458 | 0.595 | 1 | 0.836 | 0.979 | -0.055 | -0.0323 | 0.0005 | 0.016 | -0.019 | -0.019 | -0.0148 | -0.0243 | -0.0536 | -0.0054 | -0.0038 | -0.0133 | 0.0258
2 | COc1cccc(OCCCN)c1-c1cc(Nc2cnc(C#N)cn2)n[nH]1 [Prexasertib] + O=C(c1cc(Cc2n[nH]c(=O)c3ccccc23)ccc1F)N1CCN(C(=O)C2CC2)CC1 [Olaparib] (first compound max 1 µM, 7x7, partner max 10 µM) | 0.368 | 0.464 | 0.442 | 0.701 | 1 | 0.886 | 0.83 | -0.0819 | -0.0955 | -0.0645 | -0.0595 | -0.0494 | -0.0364 | -0.0658 | -0.101 | 0.0405 | -0.0052 | 0.0061 | -0.0746 | -0.0682
3 | COc1cc2c(cc1OCCCCCOc1cc3c(cc1OC)C(=O)N1C=C(C)C[C@H]1C=N3)N=C[C@@H]1CC(C)=CN1C2=O [SG3199] + O=C(c1cc(Cc2n[nH]c(=O)c3ccccc23)ccc1F)N1CCN(C(=O)C2CC2)CC1 [Olaparib] (first compound max 0.001 µM, 7x7, partner max 10 µM) | 0.081 | 0.0776 | 0.108 | 0.232 | 0.437 | 0.247 | 0.256 | 0.0064 | -0.042 | -0.0653 | -0.0442 | -0.0467 | -0.0178 | -0.0038 | 0.0943 | -0.0366 | -0.014 | -0.0041 | 0.0343 | -0.0193
4 | CCc1c2c(nc3ccc(O)cc13)-c1cc3c(c(=O)n1C2)COC(=O)[C@]3(O)CC [SN-38] + CN(C)CCCOc1ccc(-c2ccc3ncc4c(c3c2)n(C2CCOCC2)c(=O)n4C)cn1 [AZD0156] (first compound max 0.3 µM, 7x7, partner max 1 µM) | 0.448 | 0.392 | 0.208 | 0.764 | 1 | 0.828 | 0.811 | 0.0751 | -0.0338 | -0.0395 | 0.0438 | 0.0414 | 0.0399 | 0.0074 | -0.0221 | 0.0684 | -0.0488 | 0.0033 | -0.0954 | 0.0154
5 | C[C@@H](c1ccc2nccn2c1)n1nnc2ncc(-c3cnn(C)c3)nc21 [Savolitinib] + CC1(C)CCC(CN2CCN(c3ccc(C(=O)NS(=O)(=O)c4ccc(NCC5CCOCC5)c([N+](=O)[O-])c4)c(Oc4cnc5[nH]ccc5c4)c3)CC2)=C(c2ccc(Cl)cc2)C1 [Venetoclax] (first compound max 1 µM, 7x7, partner max 1 µM) | 0.038 | 0.116 | 0.114 | 0.116 | 0.0971 | 0.132 | 0.0582 | -0.0021 | -0.0153 | -0.0368 | -0.0912 | -0.0816 | 0.0079 | -0.0367 | -0.0228 | -0.0427 | -0.0642 | -0.0468 | -0.0158 | -0.0518
6 | C[C@@H](c1ccc2nccn2c1)n1nnc2ncc(-c3cnn(C)c3)nc21 [Savolitinib] + Cc1c2c(nn1C)CSCc1cc(n(C)n1)CSc1cc(c3ccccc3c1)OCCCc1c(C(=O)O)n(C)c3c-2c(Cl)ccc13 [AZD5991] (first compound max 1 µM, 7x7, partner max 1 µM) | 0.0962 | 0.185 | 0.205 | 0.899 | 0.279 | 0.204 | 0.086 | -0.0204 | -0.0198 | -0.0085 | -0.0526 | -0.0767 | 0.0227 | -0.0197 | -0.0227 | -0.0135 | 0.0076 | -0.0494 | -0.0375 | -0.0468
7 | Cn1cnc2c(F)c(Nc3ccc(Br)cc3Cl)c(C(=O)NOCCO)cc21 [Selumetinib] + C=CCn1c(=O)c2cnc(Nc3ccc(N4CCN(C)CC4)cc3)nc2n1-c1cccc(C(C)(C)O)n1 [AZD1775] (first compound max 10 µM, partner max 1 µM) | 0.395 | 0.518 | 0.229 | 0.0588 | 0.896 | 0.917 | 0.861 | -0.0637 | -0.0272 | -0.0137 | 0.0194 | -0.0711 | -0.0387 | -0.0163 | -0.0119 | -0.0224 | 0.0508 | -0.0308 | -0.101 | 0.0088
8 | Cn1cnc2c(F)c(Nc3ccc(Br)cc3Cl)c(C(=O)NOCCO)cc21 [Selumetinib] + CC(C)n1c(=O)n(C)c2cnc3cc(F)c(-c4ccc(OCCCN5CCCCC5)nc4)cc3c21 [AZD1390] (first compound max 10 µM, 7x7, partner max 0.3 µM) | 0.364 | 0.379 | 0.262 | 0.0283 | 0.369 | 0.917 | 0.527 | -0.024 | -0.0191 | -0.0152 | -0.0046 | 0.0079 | -0.0165 | -0.0167 | 0.0225 | -0.0189 | -0.0265 | -0.0257 | -0.064 | -0.008
9 | Cn1cnc2c(F)c(Nc3ccc(Br)cc3Cl)c(C(=O)NOCCO)cc21 [Selumetinib] + CCN(CCO)CCCOc1ccc2c(Nc3cc(CC(=O)Nc4cccc(F)c4)[nH]n3)ncnc2c1 [AZD2811] (first compound max 10 µM, 7x7, partner max 1 µM) | 0.408 | 0.494 | 0.25 | 0.713 | 0.43 | 0.955 | 0.602 | 0.0193 | -0.0162 | 0.0153 | -0.0526 | 0.0094 | -0.104 | 0.0127 | -0.0175 | 0.0328 | -0.003 | 0.0258 | -0.0485 | 0.0449
10 | Cn1cnc2c(F)c(Nc3ccc(Br)cc3Cl)c(C(=O)NOCCO)cc21 [Selumetinib] + C[C@@H]1COCCN1C2=NC(=NC(=C2)C3(CC3)[S@](=N)(=O)C)C4=C5C=CNC5=NC=C4 [AZD6738] (first compound max 10 µM, 7x7, partner max 10 µM) | 0.401 | 0.463 | 0.311 | 0.249 | 0.933 | 0.89 | 0.88 | -0.0328 | -0.0546 | -0.0359 | 0.048 | 0.0202 | -0.0338 | 0.0232 | 0.0043 | 0.0733 | -0.0062 | -0.0147 | 0.0315 | 0.121
11 | CC(=O)Nc1cccc(-n2c(=O)n(C3CC3)c(=O)c3c(Nc4ccc(I)cc4F)n(C)c(=O)c(C)c32)c1 [Trametinib] + Cc1nc(-c2cn3c(n2)-c2ccc(-c4cnn(C(C)(C)C(N)=O)c4)cc2OCC3)n(C(C)C)n1 [Taselisib] (first compound max 1 µM, 7x7, partner max 10 µM) | 0.665 | 0.954 | 0.429 | 1 | 0.736 | 1 | 0.887 | 0.0419 | -0.0267 | 0.06 | 0.118 | 0.0528 | 0.0885 | 0.329 | 0.0482 | 0.118 | 0.0674 | 0.0597 | 0.011 | 0.192
12 | CC1(C)CCC(CN2CCN(c3ccc(C(=O)NS(=O)(=O)c4ccc(NCC5CCOCC5)c([N+](=O)[O-])c4)c(Oc4cnc5[nH]ccc5c4)c3)CC2)=C(c2ccc(Cl)cc2)C1 [Venetoclax] + C1CN(CCC1(C(=O)N[C@@H](CCO)C2=CC=C(C=C2)Cl)N)C3=NC=NC4=C3C=CN4 [Capivasertib] (first compound max 1 µM, 7x7, partner max 3 µM) | 0.187 | 0.146 | 0.149 | 0.942 | 0.131 | 0.2 | 0.167 | -0.0146 | -0.0514 | -0.0252 | -0.0387 | -0.116 | -0.0234 | -0.0374 | 0.0111 | -0.035 | -0.0395 | -0.0465 | -0.0289 | -0.0586
13 | CC1(C)CCC(CN2CCN(c3ccc(C(=O)NS(=O)(=O)c4ccc(NCC5CCOCC5)c([N+](=O)[O-])c4)c(Oc4cnc5[nH]ccc5c4)c3)CC2)=C(c2ccc(Cl)cc2)C1 [Venetoclax] + C=CCn1c(=O)c2cnc(Nc3ccc(N4CCN(C)CC4)cc3)nc2n1-c1cccc(C(C)(C)O)n1 [AZD1775] (first compound max 1 µM, partner max 1 µM) | 0.169 | 0.294 | 0.349 | 0.754 | 0.903 | 0.841 | 0.862 | -0.0575 | -0.0174 | 0.0513 | -0.112 | -0.0562 | -0.0127 | -0.0171 | 0.0047 | -0.0076 | 0.0315 | -0.023 | 0.0148 | -0.0068
14 | CC1(C)CCC(CN2CCN(c3ccc(C(=O)NS(=O)(=O)c4ccc(NCC5CCOCC5)c([N+](=O)[O-])c4)c(Oc4cnc5[nH]ccc5c4)c3)CC2)=C(c2ccc(Cl)cc2)C1 [Venetoclax] + CCN(CCO)CCCOc1ccc2c(Nc3cc(CC(=O)Nc4cccc(F)c4)[nH]n3)ncnc2c1 [AZD2811] (first compound max 1 µM, 7x7, partner max 1 µM) | 0.167 | 0.25 | 0.184 | 0.749 | 0.31 | 0.404 | 0.188 | -0.0104 | -0.0227 | 0.0236 | -0.0309 | -0.0038 | 0.0405 | 0.0287 | 0.0162 | -0.0005 | 0.0178 | -0.059 | 0.0685 | -0.0247
